The IC50 is the concentration at which inhibition is half-maximal. A low value points to inhibition by little substance.

For the data set, the target named is T1, hERG potassium channel (Homo sapiens, UniProt Q12809).
T1 construct: expressed in transfected cells
Description: Whole cell patch clamp, inhibition of hERG tail current. It is filed as cell-based. Particulars: for IC50: human, hERG cells (host cell line not named), pH 7.4, whole cell patch clamp, logistic fit; for Inhibition ratio of max. test concentration (hERG current): max. test concentration 100 μM. On the procedure:
Test Case 2: Studies on the Effect of Compounds EXP 1, TAK-438 and EXP 12 on hERG Potassium Channel Testing System 1) Cell culture: the hERG cell is cultured in a routine way, which is subcultured in a DMEM containing 10% of fetal calf serum and 250 μg/ml of G418. 2) Fluid preparation: the composition of the extracellular fluid used in the experiment of whole cell patch clamp comprises (mM): NaCl 145, MgCl21, KCl 4, Glucose 10, HEPES 10 and CaCl22; adjusting the pH value of NaOH to 7.4 and adjusting the value of osmotic pressure to 300 mOsm with sucrose. The composition of the intracellular fluid comprises (mM):KCl 140; MgCl 21; EGTA 5; HEPES 10 and Na2ATP 4; adjusting the pH value of KOH to 7.2 and adjusting the value of osmotic pressure to 290 mOsm with sucrose.
Main composition of the extracellular and intracellular fluid
Test Procedure 1) Electrophysiological recording: taking out one culture dish for each test; cleaning it with the extracellular fluid twice and placing it on the inverted microscope stage. The experiment of whole cell patch clamp is conducted at ambient temperature; the resistance at the microelectrode tip of the used borosilicate glass is 3-5 MQ. 2) Voltage stimulus plan and current record: clamping down the membrane potential to −80 mV under the whole-cell recording mode; giving +50 mV of depolarized voltage stimulus to the cell every 30 s and lasting for 2 s, then repolarizing it to −50 mV and lasting for 3 s, thus, the tail current of hERG can be extracted. Giving 50 ms, −50 mV repolarized voltage to the cell before depolarized voltage stimulus; the current recorded at such voltage is as the base line for calculating the tail current of hERG. Only the cells meet the recording standard can be used in the test of the compounds to be tested. The hERG tail current should be recorded stably at last for 3 min in the extracellular fluid before the compound is added. After perfusion of drugs, it can be regarded that the drug effect reaches a steady state if the change of the amplitude of hERG tail current is less than 5%. If the current fails to reach a steady state in 6 min, the test should also be terminated. 3) Testing standard: the membrane resistance in the experiment should be more than 1,000 MQ. The initial current should be more than 300 pA. The series resistance should be less than 12 MQ after the whole-cell recording mode is constructed. The leakage current is less than 10% of the ionic channel current (taking −80 pA as the peak value). Data Analysis
Using Clampex 10.2 to record the original data and saving the data in the format of *abf. Using pCLAMP 10.1 to conduct data collection and analysis. Selecting 4-5 sweeps when the current is in a steady state before the compound is added; calculating the average peak value to serve as the contrasted current amplitude. Selecting 4-5 sweeps when the current is in a steady state after the compound is added; calculating the average peak value to serve as the residual amplitude of the inhibited current. The inhibition ratio of the compound to be tested to hERG current is calculated as per the equation as: % inhibition ratio={1−(current residual amplitude)/(contrasted current amplitude)}*100
After the inhibition ratio (average value±standard deviation) of the compound to be tested to the hERG current of different concentrations is obtained through the above computing method, the data with logistic equation should be fitted to obtain the value of IC50.
(In general: Patch clamp records ionic current or voltage across a cell membrane.)

The structures appear in SMILES notation. Structures can show the parent of a compound that is named as a salt.

T1 sequence (Q12809 whole entry): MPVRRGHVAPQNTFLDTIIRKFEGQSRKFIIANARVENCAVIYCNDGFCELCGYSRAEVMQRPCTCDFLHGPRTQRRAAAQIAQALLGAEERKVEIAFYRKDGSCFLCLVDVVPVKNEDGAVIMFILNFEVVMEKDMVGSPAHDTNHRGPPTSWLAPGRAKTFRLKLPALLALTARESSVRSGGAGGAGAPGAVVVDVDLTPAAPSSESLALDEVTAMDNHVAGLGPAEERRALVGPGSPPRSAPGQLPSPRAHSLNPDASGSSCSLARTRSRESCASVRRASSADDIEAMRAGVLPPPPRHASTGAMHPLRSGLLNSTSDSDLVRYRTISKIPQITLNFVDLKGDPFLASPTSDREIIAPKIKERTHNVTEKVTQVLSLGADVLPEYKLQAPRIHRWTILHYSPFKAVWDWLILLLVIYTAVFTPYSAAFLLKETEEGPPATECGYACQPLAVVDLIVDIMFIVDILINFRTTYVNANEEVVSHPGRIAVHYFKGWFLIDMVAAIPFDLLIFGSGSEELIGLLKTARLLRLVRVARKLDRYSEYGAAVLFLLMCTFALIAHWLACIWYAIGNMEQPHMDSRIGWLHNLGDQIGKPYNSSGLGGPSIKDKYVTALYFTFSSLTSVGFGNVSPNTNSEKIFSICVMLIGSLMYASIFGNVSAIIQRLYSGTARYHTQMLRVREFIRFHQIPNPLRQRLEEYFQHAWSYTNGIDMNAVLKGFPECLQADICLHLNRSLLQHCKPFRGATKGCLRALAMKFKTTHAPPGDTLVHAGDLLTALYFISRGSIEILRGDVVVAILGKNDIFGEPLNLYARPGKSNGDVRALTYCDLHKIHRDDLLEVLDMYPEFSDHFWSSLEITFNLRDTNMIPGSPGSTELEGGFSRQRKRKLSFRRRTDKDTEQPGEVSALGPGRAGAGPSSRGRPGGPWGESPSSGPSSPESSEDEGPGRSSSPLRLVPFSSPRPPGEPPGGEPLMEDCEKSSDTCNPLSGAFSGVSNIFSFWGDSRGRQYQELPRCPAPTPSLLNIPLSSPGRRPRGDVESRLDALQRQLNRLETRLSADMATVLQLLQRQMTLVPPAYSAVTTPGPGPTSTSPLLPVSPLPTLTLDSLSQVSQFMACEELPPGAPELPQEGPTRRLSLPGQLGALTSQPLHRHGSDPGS

With `CNCc1cc(-c2ccccc2F)n(S(=O)(=O)c2cccnc2)c1` [TAK-438, 5-(2-fluorophenyl)-N-methyl-1-(3-pyridylsulfonyl)-1H-pyrrole-3-methamine fumarate], the IC50 came to 15.9 µM and the “Inhibition ratio of max. test concentration (hERG current)” value was determined as 88.23 ± 3.18%.
Take `CNCc1cc(-c2ccccc2F)n(S(=O)(=O)c2cccc(OCCCOC)c2)c1` [EXP 1, 1-(5-(2-fluorobenzene)-1-((3-(3-methoxypropoxy)phenyl)sulfonyl)-1H-pyrrole-3-yl)-N-methyl methylamine]: the IC50 is 18.7 µM and the “Inhibition ratio of max. test concentration (hERG current)” value is recorded as 86.21 ± 1.67%.
